Values of other authors as cited in patent publication US20110053979A1, “PYRIDINE DERIVATIVES USED TO TREAT OREXIN RELATED DISORDERS” (priority 2008, published 2011).

Key:
rats [1] = tested on: rats
rats [2] = tested on: rats; remark: listed apart in the source
freely-feeding rats = conditions: central administration, 4 hour time period
rats [3] = conditions: central administration at the onset of the normal sleep period, rat

Compound | effect on hedonic eating (rats [1]) | effect on high-fat pellet self-administration (rats [2]) | increase of food intake over control rats receiving vehicle (freely-feeding rats) | effect on arousal (rats [3])
Cc1nc2ccc(NC(=O)Nc3ccnc4cccnc34)cc2o1 [SB334867] | potently reduced hedonic eating | attenuated high-fat pellet self-administration |  | 
orexin-A: polypeptide ligand for the orexin-1 receptor; an agonist of the orexin receptors (QPLPDCCRQKTCSCRLYELLHGAGNHAAGILTL; Orexin-A; UniProt O43612 34-66, looked up) |  |  | approximately four-fold | dose-related increase in arousal
